Read-outs that look alike come from different tables or passages of the source.
Columns and labels:
ZR-75-1 cells = experiment: Proliferation assay ZR-75-1 (Alamar Blue, 144 h); assay type: cell-based; conditions: arithmetic mean, read-out: ZR75-1 proliferation assay, EC50 [M] (arithmetic mean)
Procedure, shortened: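 Cells seeded at 3000/well in RPMI 1640 with 2.5% FBS and treated 24 h later across 2.0×10E-5 to 2.0×10E-9 M (9 dilutions, 0.2% DMSO, triplicate). After 144 h at 37 °C, 5% CO2, viability read by Alamar Blue fluorescence at 590 nm following 2 h reagent incubation.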

[1] = system: ESR1 transcription (luciferase signal in MVLN cells); experiment: Repression of ESR1 transcription, luciferase reporter in MVLN cells; assay type: cell-based; conditions: inhibition of luciferase signal in MVLN cells, arithmetic mean
Procedure, shortened: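 MVLN cells (constitutive ER, stably carrying a Vitellogenin A2 hormone-responsive element–luciferase reporter) treated in duplicate; luciferase read after 24 h. Cell density checked by Alamar Blue fluorescence (530/590 nm) after 2 h to exclude cell-loss effects.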

[2] = molecular target: Recombinant human GST-tagged Kat6b protein (431-end) (Homo sapiens, UniProt Q8WYB5); experiment: Kat6b activity assay (TR-FRET, acetylation of biotinylated Histone-H4-derived peptide); assay type: biochemical; conditions: 30 mins at 22° C., read-out: KAT6B activity assay IC50 [mol/l] (arithmetic mean)
Chain of Recombinant human GST-tagged Kat6b protein (431-end) (Homo sapiens, UniProt Q8WYB5) (Q8WYB5 whole entry, looked up): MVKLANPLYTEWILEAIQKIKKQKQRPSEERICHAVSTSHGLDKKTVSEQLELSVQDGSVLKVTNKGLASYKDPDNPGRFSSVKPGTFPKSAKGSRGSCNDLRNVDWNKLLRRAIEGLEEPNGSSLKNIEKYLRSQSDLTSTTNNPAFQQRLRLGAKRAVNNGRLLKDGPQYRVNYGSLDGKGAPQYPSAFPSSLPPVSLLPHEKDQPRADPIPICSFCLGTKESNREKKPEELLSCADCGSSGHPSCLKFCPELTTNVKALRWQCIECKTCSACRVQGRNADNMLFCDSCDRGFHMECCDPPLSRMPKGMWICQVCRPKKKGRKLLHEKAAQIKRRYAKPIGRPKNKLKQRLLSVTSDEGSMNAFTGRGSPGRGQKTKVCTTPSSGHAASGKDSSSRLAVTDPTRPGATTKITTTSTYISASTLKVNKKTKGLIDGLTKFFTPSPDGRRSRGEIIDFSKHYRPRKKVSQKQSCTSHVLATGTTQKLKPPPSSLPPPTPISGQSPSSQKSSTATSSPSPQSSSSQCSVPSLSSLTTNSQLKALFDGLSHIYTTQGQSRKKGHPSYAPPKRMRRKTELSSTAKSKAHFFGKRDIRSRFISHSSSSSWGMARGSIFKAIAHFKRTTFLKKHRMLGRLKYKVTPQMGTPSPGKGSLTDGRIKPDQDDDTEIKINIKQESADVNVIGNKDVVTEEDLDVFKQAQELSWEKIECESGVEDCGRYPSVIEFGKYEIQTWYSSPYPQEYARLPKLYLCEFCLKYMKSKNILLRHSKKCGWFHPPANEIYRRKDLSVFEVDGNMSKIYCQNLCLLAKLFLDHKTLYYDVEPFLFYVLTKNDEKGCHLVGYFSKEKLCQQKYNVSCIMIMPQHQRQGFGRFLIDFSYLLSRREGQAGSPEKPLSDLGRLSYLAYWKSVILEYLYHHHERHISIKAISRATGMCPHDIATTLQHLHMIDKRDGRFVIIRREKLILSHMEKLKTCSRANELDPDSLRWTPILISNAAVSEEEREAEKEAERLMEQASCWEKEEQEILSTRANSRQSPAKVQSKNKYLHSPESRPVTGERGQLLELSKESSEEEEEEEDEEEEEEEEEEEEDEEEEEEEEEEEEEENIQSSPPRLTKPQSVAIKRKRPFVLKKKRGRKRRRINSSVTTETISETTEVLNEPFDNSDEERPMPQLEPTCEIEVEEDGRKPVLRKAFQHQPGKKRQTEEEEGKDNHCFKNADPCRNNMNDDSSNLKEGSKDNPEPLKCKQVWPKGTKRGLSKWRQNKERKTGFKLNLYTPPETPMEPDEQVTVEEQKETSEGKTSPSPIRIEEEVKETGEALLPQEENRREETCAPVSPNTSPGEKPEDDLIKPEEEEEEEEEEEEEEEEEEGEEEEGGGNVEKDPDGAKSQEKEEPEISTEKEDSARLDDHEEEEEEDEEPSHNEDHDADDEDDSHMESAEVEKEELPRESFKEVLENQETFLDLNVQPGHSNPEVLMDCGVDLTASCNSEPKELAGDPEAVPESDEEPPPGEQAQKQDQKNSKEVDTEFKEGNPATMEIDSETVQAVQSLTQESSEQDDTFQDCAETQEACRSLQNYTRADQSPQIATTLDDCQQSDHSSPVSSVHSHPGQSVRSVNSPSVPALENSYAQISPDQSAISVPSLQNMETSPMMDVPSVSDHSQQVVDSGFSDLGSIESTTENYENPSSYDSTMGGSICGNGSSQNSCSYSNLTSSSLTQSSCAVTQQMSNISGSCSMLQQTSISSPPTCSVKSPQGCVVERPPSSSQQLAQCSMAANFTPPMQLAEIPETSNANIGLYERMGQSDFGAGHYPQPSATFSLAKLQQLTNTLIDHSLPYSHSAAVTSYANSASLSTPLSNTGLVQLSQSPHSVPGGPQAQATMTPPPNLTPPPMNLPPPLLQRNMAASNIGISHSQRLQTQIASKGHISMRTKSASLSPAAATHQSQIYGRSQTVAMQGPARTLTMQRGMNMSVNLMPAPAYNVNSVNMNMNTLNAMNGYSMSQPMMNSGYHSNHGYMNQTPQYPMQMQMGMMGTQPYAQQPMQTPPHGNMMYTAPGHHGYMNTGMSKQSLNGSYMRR

MDA-MB-436 cells = experiment: Proliferation assay MDA-MB-436, negative control cell line (Alamar Blue, 144 h); assay type: cell-based; conditions: arithmetic mean
Procedure, shortened: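 MDA-MB-436 cells (3000/well, DMEM/Ham's F12 with 2.5% FBS) treated 24 h after plating with compounds at 2.0×10E-5 to 2.0×10E-9 M (9 dilutions, 0.2% DMSO), triplicates, 144 h at 37 °C, 5% CO2. Viability by Alamar Blue, 2 h, fluorescence at 590 nm.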

[3] = molecular target: Recombinant human His-tagged Kat6a protein (amino acids 194-810) (Homo sapiens (Human), UniProt Q92794); experiment: Kat6a activity assay (TR-FRET, acetylation of biotinylated Histone-H4-derived peptide); assay type: biochemical; conditions: 60 mins at 22° C., read-out: KAT6A-DPF/HAT domain IC50 [mol/l] (arithmetic mean)
Chain of Recombinant human His-tagged Kat6a protein (amino acids 194-810) (Q92794 194-810): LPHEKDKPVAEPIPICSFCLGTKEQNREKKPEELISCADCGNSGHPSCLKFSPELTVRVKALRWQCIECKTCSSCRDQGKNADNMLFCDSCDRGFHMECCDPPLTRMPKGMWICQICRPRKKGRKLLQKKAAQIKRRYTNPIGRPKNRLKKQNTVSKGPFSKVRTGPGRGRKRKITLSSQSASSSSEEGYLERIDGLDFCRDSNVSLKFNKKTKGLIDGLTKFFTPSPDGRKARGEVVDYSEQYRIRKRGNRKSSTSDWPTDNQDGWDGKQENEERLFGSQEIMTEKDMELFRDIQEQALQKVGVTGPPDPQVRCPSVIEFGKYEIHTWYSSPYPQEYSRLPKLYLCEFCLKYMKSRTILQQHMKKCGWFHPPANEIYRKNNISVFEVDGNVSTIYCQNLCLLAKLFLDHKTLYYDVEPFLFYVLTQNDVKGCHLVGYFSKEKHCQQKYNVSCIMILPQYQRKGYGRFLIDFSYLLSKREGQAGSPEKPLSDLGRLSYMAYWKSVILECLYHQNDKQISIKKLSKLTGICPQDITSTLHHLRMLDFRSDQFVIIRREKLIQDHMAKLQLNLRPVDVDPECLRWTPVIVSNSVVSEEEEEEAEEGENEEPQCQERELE
Procedure, shortened: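 Sf9-expressed human His-Kat6a (aa 194-810) incubated 60 min at 22 °C with compounds (0.01-20 μM) in Tris pH 8 buffer containing 220 nM biotinylated H4 peptide (aa 1-24) and 600 nM acetyl-CoA. Acetyl-K8 detected by TR-FRET (665/620 nm ratio); IC50 by four-parameter fit versus DMSO controls.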

JMSU-1 cells = experiment: Proliferation assay JMSU-1 (Alamar Blue, 144 h); assay type: cell-based; conditions: JMSU1, bladder carcinoma, read-out: proliferation assays
Procedure: (§1) Assessment of the Anti-Proliferative Effect of Compounds in Different Cell Lines
(§2) To determine further cancer indications that respond to treatment with KAT6A or KAT6B3 inhibitors various cell lines carrying a KAT6A and/or KAT6B3 focal amplification or high KAT6A and/or KAT6B3 protein expression were used for proliferation assays with selected compounds.
(§3) 24 hours later, cells were treated with compounds (stock solution, 10 mM in DMSO) using the HP D300 Digital Dispenser in a concentration range of 2.0×10E-5 M to 2.0×10E-9 M in a single-dot curve with 9 dilutions and a DMSO concentration of 0.2%. Each sample was prepared as triplicate and rim wells were excluded. Plates were incubated at 37° C. and 5% CO2 for 144 h. Cell viability was measured by adding 10 μL of Alamar Blue Reagent (Invitrogen #DAL 1100) and plates were incubated for 2 h at 37° C. and 5% CO2. Fluorescence was measured at 590 nm wavelength with a Tecan Spark or Victor X3 MTP-Reader (PerkinElmer).

LNCAP cells = experiment: Proliferation assay LNCAP (Alamar Blue, 144 h); assay type: cell-based; conditions: Homo sapiens, prostate carcinoma, 10 nM R1881, read-out: proliferation assays
Procedure: as §1, §2, §3

THP-1 cells = experiment: Proliferation assay THP-1 (Alamar Blue, 144 h); assay type: cell-based; conditions: Homo sapiens, THP1, acute monocytic leukemia, read-out: proliferation assays
Procedure: as §1, §2, §3

DMS 53 cells = experiment: Proliferation assay DMS 53 (Alamar Blue, 144 h); assay type: cell-based; conditions: Homo sapiens, DMS53, small cell lung cancer, read-out: proliferation assays
Procedure: as §1, §2, §3

EFM-19 cells = experiment: Proliferation assay EFM-19 (Alamar Blue, 144 h); assay type: cell-based; conditions: Homo sapiens, EFM19, breast carcinoma, read-out: proliferation assays
Procedure: as §1, §2, §3

COLO 684 cells = experiment: Proliferation assay COLO 684 (Alamar Blue, 144 h); assay type: cell-based; conditions: Homo sapiens, COLO684, uterus adenocarcinoma, read-out: proliferation assays
Procedure: as §1, §2, §3

[4] = molecular target: Recombinant human GST-tagged Kat6b protein (431-end); experiment: Kat6b activity assay (TR-FRET, acetylation of biotinylated Histone-H4-derived peptide); assay type: biochemical; conditions: 30 mins at 22° C., read-out: KAT6B activity assay IC50 [mol/l] (arithmetic mean)
[5] = Homo sapiens, MDA-MB-436, 144 h

SMILES | IC50 ([1]; Homo sapiens, MVLN) | EC50 (MDA-MB-436 cells; [5]) | IC50 [3] | IC50 [4] | EC50 (ZR-75-1 cells; Homo sapiens, ZR-75-1, 144 h) | also measured
CN(C)c1ccc2cc(C(=O)NS(=O)(=O)c3ccccc3-c3ccccc3)oc2c1 [Example 14, N-([1,1′-Biphenyl]-2-sulfonyl)-6-(dimethylamino)-1-benzofuran-2-carboxamide] | 121 nM | 18400 nM | – | – | – | EC50 (ZR-75-1 cells): 1.2e-07 M; EC50 (JMSU-1 cells): 605 nM; EC50 (LNCAP cells): 4160 nM; EC50 (THP-1 cells): 238 nM; EC50 (DMS 53 cells): 490 nM; EC50 (EFM-19 cells): 223 nM; EC50 (COLO 684 cells): 184 nM
COc1ccc(Cl)cc1S(=O)(=O)NC(=O)c1cc2ccc(N(C)C)cc2o1 [Example 149, N-(5-chloro-2-methoxybenzene-1-sulfonyl)-6-(dimethylamino)-1-benzofuran-2-carboxamide] | 138 nM | > 20000 nM | 123 nM | 379 nM | 1.74e-07 M | –
CN(C)c1ccc2cc(C(=O)NS(=O)(=O)c3cc(C(C)(C)C)ccc3OCc3ccccc3)oc2c1 [Example 179, N-[(2-(Benzyloxy)-5-(tert-butyl)phenyl)sulfonyl]-6-(dimethylamino)benzofuran-2-carboxamide] | 15.9 nM | > 20000 nM | 8.95 nM | 19.4 nM | 6.79e-08 M | –
CN(C)c1ccc2cc(C(=O)NS(=O)(=O)c3cc(C(C)(C)C)ccc3OCC3CC3)oc2c1 [Example 180, N-((5-(tert-butyl)-2-(cyclopropylmethoxy)phenyl)sulfonyl)-6-(dimethylamino)benzofuran-2-carboxamide] | 22.9 nM | > 20000 nM | 4.36 nM | 21.3 nM | 3.77e-08 M | –
CN(C)c1ccc2cc(C(=O)NS(=O)(=O)c3cc(C(C)(C)C)ccc3OC3CCC3)oc2c1 [Example 182, N-[(5-(tert-butyl)-2-cyclobutoxyphenyl)sulfonyl]-6-(dimethylamino)benzofuran-2-carboxamide] | 22 nM | > 20000 nM | 2.67 nM | 11.9 nM | 6.1e-08 M | –
CC(C)c1ccc(OC2CCC2)c(S(=O)(=O)NC(=O)c2cc3ccc(N(C)C)cc3o2)c1 [Example 184, N-((2-Cyclobutoxy-5-isopropylphenyl)sulfonyl)-6-(dimethylamino)benzofuran-2-carboxamide] | 22.5 nM | > 20000 nM | 15.9 nM | – | 6.98e-07 M | IC50 [2]: 47.8 nM
COc1ccc(C(C)(C)C)cc1S(=O)(=O)NC(=O)c1cc2ccc(N(C)C)cc2o1 [Example 185, N-((5-(tert-butyl)-2-methoxyphenyl)sulfonyl)-6-(dimethylamino)benzofuran-2-carboxamide] | 15.1 nM | > 20000 nM | 2.63 nM | 13.9 nM | 1.69e-08 M | –
CN(C)c1cc(C(F)(F)F)c2cc(C(=O)NS(=O)(=O)c3ccccc3-c3ccccc3)oc2c1 [Example 193, N-([1,1′-biphenyl]-2-ylsulfonyl)-6-(dimethylamino)-4-(trifluoromethyl)benzofuran-2-carboxamide] | 1690 nM | > 20000 nM | 7.14 nM | 12.8 nM | 6.55e-06 M | –
CCOc1ccccc1S(=O)(=O)NC(=O)c1cc2c(C(F)(F)F)cc(N(C)C)cc2o1 [Example 195, 6-(Dimethylamino)-N-((2-ethoxyphenyl)sulfonyl)-4-(trifluoromethyl)benzofuran-2-carboxamide] | 716 nM | > 20000 nM | 5.73 nM | 14.7 nM | 8.71e-07 M | –
Cc1ccc2cccc(S(=O)(=O)NC(=O)c3cc4c(C(F)(F)F)cc(N(C)C)cc4o3)c2n1 [Example 196, 6-(Dimethylamino)-N-((2-methylquinolin-8-yl)sulfonyl)-4-(trifluoromethyl)benzofuran-2-carboxamide] | 295 nM | > 14100 nM | 1.47 nM | 1.78 nM | 2.12e-06 M | –
CCOc1ccccc1S(=O)(=O)NC(=O)c1cc2ccc(N(C)C)cc2o1 [Example 223] | 80.2 nM | > 20000 nM | 106 nM | 99.1 nM | 5.87e-08 M | –
CC(C)Oc1ccccc1S(=O)(=O)NC(=O)c1cc2ccc(N(C)C)cc2o1 [Example 224] | 31.4 nM | > 20000 nM | 58.3 nM | 76.4 nM | 5.24e-08 M | –

The next lines start with results.

IC50 ([1]; Homo sapiens, MVLN) | EC50 (MDA-MB-436 cells; [5]) | IC50 [3] | IC50 [4] | SMILES | EC50 (ZR-75-1 cells; Homo sapiens, ZR-75-1, 144 h) | also measured
23.6 nM | > 20000 nM | 8.47 nM | – | CC(C)c1ccc(OCC2CC2(F)F)c(S(=O)(=O)NC(=O)c2cc3ccc(N(C)C)cc3o2)c1 (racemic) [Example 186, N-((2-((2,2-difluorocyclopropyl)methoxy)-5-isopropylphenyl)sulfonyl)-6-(dimethylamino)benzofuran-2-carboxamide (rac)] | 5.59e-08 M | IC50 [2]: 26.1 nM
– | – | 30.7 nM | – | CN(C)c1ccc2cc(C(=O)NS(=O)(=O)c3cccc4c3OC(F)(F)C(F)(F)O4)oc2c1 [Example 134, 6-(Dimethylamino)-N-(2,2,3,3-tetrafluoro-2,3-dihydro-1,4-benzodioxine-5-sulfonyl)-1-benzofuran-2-carboxamide] | – | EC50 (ZR-75-1 cells): 1.26e-07 M; IC50 [1]: 76.8 nM; IC50 [2]: 25.9 nM; EC50 (MDA-MB-436 cells): > 20000 nM
121 nM | > 20000 nM | 104 nM | 68 nM | COc1ccc(Br)cc1S(=O)(=O)NC(=O)c1cc2ccc(N(C)C)cc2o1 [Example 148, N-(5-Bromo-2-methoxybenzene-1-sulfonyl)-6-(dimethylamino)-1-benzofuran-2-carboxamide] | 1.28e-07 M | –
30.1 nM | > 20000 nM | 11.8 nM | 43.5 nM | CN(C)c1ccc2cc(C(=O)NS(=O)(=O)c3cc(C(C)(C)C)ccc3OCC(F)(F)F)oc2c1 [Example 181, N-[(5-(tert-butyl)-2-(2,2,2-trifluoroethoxy)phenyl)sulfonyl]-6-(dimethylamino)benzofuran-2-carboxamide] | 9.93e-08 M | –
> 20000 nM | > 20000 nM | 1970 nM | 3010 nM | CN(C)c1ccc2cc(C(=O)NS(=O)(=O)c3ccccc3-c3ccccc3)oc2c1C(F)(F)F [Example 202, N-([1,1′-biphenyl]-2-sulfonyl)-6-(dimethylamino)-7-(trifluoromethyl)-1-benzofuran-2-carboxamide] | > 2e-05 M | –
36.2 nM | > 20000 nM | 22.7 nM | 25.8 nM | Cc1ccc2cccc(S(=O)(=O)NC(=O)c3cc4ccc(N(C)C)cc4o3)c2n1 [Example 225] | 7.21e-08 M | –

Source: patent publication US12357603B2, “Acyl sulfonamides for treating cancer” (Bayer Aktiengesellschaft, priority 2019, dated 2025)
